Experimental data as given in paper PMC6804080, “Benzoxaboroles—Novel Autotaxin Inhibitors” (Molecules, 2019).
In brackets after ≈: the same amount, converted by molar mass. Several values for one entry are separate records, joined by “and”; a condition that tells them apart may be missing. Equal values may be shown once.

Tests used:
Autotaxin (ATX) = target: T1, Autotaxin (ATX) (Homo sapiens, UniProt Q13822); test: biochemical choline detection assay for ATX inhibition, LysoPC substrate; conditions: for IC50: mean standard deviation from duplicate experiments; for ATX inhibition, range of activity: in words
T1 construct: we added 10 μL of recombinant ATX (2 ng/mL) in a Tris–HCl buffer
Method: All 21 new benzoxaboroles derivatives prepared herein were evaluated for ATX inhibition in vitro using a biochemical choline detection assay, combining elements of assays already described in the literature.
[…] Mother plates with serial dilutions of compounds in pure DMSO were prepared from 10 mM DMSO stock solutions. Storplate-384-deep-well-V plates (Perkin Elmer) were also used for mother plate preparation. Compounds were diluted in a DMSO in a ratio of 1:3. An aliquot of 200 nL of compound solution was transferred from the mother plate to the test plate with a Mosquito nanoliter liquid handling system (TTP labtech). The assay was performed in Spectra-Plate-384 TC, transparent, (Perkin Elmer, Cat#6007658) using a 20 µL assay volume. The total final percentage of DMSO in the test media was 1%. Compounds were tested at 11 consecutive three-fold dilutions starting from 50 µM (final concentrations) in duplicate, covering range of 0.0008–50 μM to determine IC50 values. […] After dispensing of compounds directly to the dry plate, we added 10 μL of recombinant ATX (2 ng/mL) in a Tris–HCl buffer (140 mM NaCl, 1mM MgCl2, 5 mM KCl, 3 mM CaCl2, 1 mg/ml bovin serum albumin (BSA, fatty acid free) and 100 mM Tris–HCl, pH 9). […] The above-described solution with dimethyl sulfoxide but without the test compound was used as a control. LysoPC without ATX was used as a control for the autohydrolysis of LysoPC. After 1.5 h of incubation, 20 μL of stop solution and developer was added {Choline oxidase (1.2 U/mL), Peroxidase (1.2 U/mL), TOOS (2.7 mM), 4-Aminoantipyrine (2.7 mM), and EDTA (50 mM)} to the reaction mixture, and absorbance was measured after 30 min of incubation. The absorbance was measured by using Perkin-Elmer EnVision plate reader (λ = 555 nm). Data were analyzed using GraphPad Prism software. The calculation of IC50 data, curves and quality control (QC) analysis was made by using Excel tools and GraphPadPrism software. Briefly, individual concentration–effect curves were generated by plotting the logarithm of the tested concentration of tested compounds (X) vs. corresponding percentage inhibition values (Y) using a least squares (ordinary) fit. […] QC criteria parameters (Z,’ S:B, ΔmP) were checked for every plate.

[1] = metabolic stability in rat liver microsomes; assay type: in vitro ADME
Method: (§1) Metabolic stability was assessed in rat and human liver microsomes, with testosterone and propranolol as positive controls. All compounds, at a final concentration of 1 μM (0.03% DMSO), were incubated in a phosphate buffer (50 mM, pH 7.4) for 60 min at 37 °C, together with liver microsomes in the absence and presence of NADPH generating system (nicotinamide adenine dinucleotide phosphate (NADP, 2 mM), glucose-6-phosphate (20 mM), glucose-6-phosphate dehydrogenase (6U) and magnesium chloride (2 mM)). Aliquots were taken at different time points (0, 10, 20, 30, 45 and 60 min), followed by reaction termination by addition of CH3CN:CH3OH 2:1 v/v, containing diclofenac as internal standard (IS). Samples were then centrifuged (at 2000 rpm at 4 °C for 30 min), and resulting supernatants were subjected to LC/MS/MS analysis. The in vitro half-life was calculated in GraphPadPrism software from % remaining vs. time regression using non-linear regression fit. In vitro intrinsic clearance, expressed as mL/min/g liver, was determined from in vitro half-life and normalized for the protein concentration in the incubation mixture, assuming a 52.5 mg/g liver.

[2] = in vitro plasma stability, rat plasma; assay type: in vitro ADME; conditions: after 4 h
Method: (§2) The in vitro plasma stability of the test compounds was studied in human and rat plasma with propranolol, benflorex, and eucatropine as control substances. All compounds at final concentrations of 5 μM (0.5% DMSO) were incubated in a phosphate buffer (50 mM, pH 7.4) for 4 h at 37 °C together with plasma. Aliquots were taken at different time points (0, 30, 120 min and 4 h), followed by reaction termination by the addition of CH3CN:CH3OH 2:1 v/v., which contained diclofenac and warfarin as internal standards (IS). Samples were then centrifuged (at 1600 rpm at 4 °C for 30 min), and the resulting supernatants were subjected to LC/MS/MS analysis. Results are expressed as % remaining.

[3] = plasma protein binding, equilibrium dialysis, human plasma; assay type: in vitro ADME; conditions: for fraction unbound at 4 h, 5 µM: pH 7.4, read-out: PPB: fraction bound, human (converted)
Method: (§3) Plasma protein binding was measured using the equilibrium dialysis technique. Positive controls included in this assay were: Acebutolol (low binding) and nicardipine (very high binding). The assay was performed in a 96-well Teflon dialysis unit, where each well consisted of two chambers separated by a dialysis membrane. Plasma (human and rat, commercially obtained from Seralab) spiked with each compound (final concentration: 5 µM, 0.5% DMSO) were added to one chamber, and a blank buffer solution (60 mM Na2HPO4/14 mM KH2PO4/70 mM NaCl; pH 7.4) was added to the other side of the well. Each compound was analyzed in duplicate, for 4 h at 37 °C. After 4 h, both the plasma (free and bound fraction) and buffer (only free fraction) side of the well were sampled, matrix matched, then precipitated with a STOP solution (CH3CN:CH3OH 2:1 v/v, containing diclofenac as internal standard), and centrifuged at 2000 rpm for 30 min (+4 °C). The resulting supernatants were analyzed by LC-MS/MS. The fraction bound was calculated as the concentration difference (analyte vs. internal standard peak area ratio) in the plasma and buffer sides divided by the total concentration in the plasma side. Sampling was also performed from spiked plasma at t = 0 min in order to determine recovery, i.e., % of compound detected at t = 4 h in both the plasma and buffer chambers divided by the compound detected at t = 0 min.

[4] = in vitro plasma stability, human plasma; assay type: in vitro ADME; conditions: after 4 h
Method: as §2

[5] = Chrom logD determination by gradient HPLC (CHI); assay type: physicochemical; conditions: pH 7.4, Luna C18 column; for chromatographic logD: reversed-phase HPLC, Phenomenex Luna C18 column
Method: clogP values were calculated for all compounds using the Percepta software. Chrom logD was determined experimentally using a procedure described in the supplementary data. Furthermore, the correlation between calculated clogP values and experimentally determined Chrom log D values were explored for molecules containing boron functional groups such as boronic acids and benzoxaboroles.
Chrom logD values were determined from the following equation: Chrom logD = 0.0857 × CHI − 2 [39]. Chromatographic hydrophobic index (CHI) values were determined from the gradient retention times (RT). These values approximately corresponded to the volume percentage of organic component in the mobile phase when the compound elutes. CHI values were determined at pH 7.4. Chromatograms were obtained using on Agilent 1100 Series liquid chromatography system with an HPLC diode-array detector (DAD) coupled with a Micromass Quattro micro atmosphere pressure ionization (API) mass spectrometer. The column used for analyses was Phenomenex Luna C18 (50 × 3 mm, 5 µm, 100 Å). The column was maintained at 25 °C. The flow rate was 1.0 mL/min. The mobile phase was composed of 50 mM ammonium acetate in water at pH 7.4 (solvent A) and acetonitrile (solvent B). The solvent gradient condition was initially 0.5% B, and then it increased linearly to 100% B over 3.0 min, remaining at 100% B for 0.5 min, then decreasing linearly to 0% B over 0.2 min followed by an equilibration period of 1.3 min prior to the next injection. The total experimental duration was 5 min. Injection volume was 2.0 µl. Samples temperature was maintained at 15 °C in the autosampler chamber. A group of ten standard compounds having different CHI values was used for calibration of RP-HPLC [40].

[6] = plasma protein binding, equilibrium dialysis, rat plasma; assay type: in vitro ADME; conditions: pH 7.4, rat plasma, read-out: PPB: fraction bound, rat (converted)
Method: as §3

[7] = kinetic solubility, turbidimetric method; assay type: physicochemical; conditions: for solubility kinetic at 1 h: 37 °C, pH 7.4, aqueous buffer, kinetic from dmso stock, Solubility (kinetic solubility range)
Method: Turbidimetric solubility allows for a rapid determination of kinetic solubility by using small amounts of the test compound. Assay controls were α-naphtoflavone (low solubility) and sulfaphenazole (expected solubility >100µM). DMSO stock solutions (10 mM) of each compound were first serially diluted 1 in 3 in DMSO and then spiked into an aqueous buffer (100 mM PBS), resulting in 5 following final concentration: 100, 30, 10, 3 and 1 µM (each concentration was tested in duplicate). […] Compound samples were compared to a solvent control in an aqueous buffer (DMSO 1% final concentration), and a significant increase of sample absorbance was considered to have occurred when the absorbance reached a 3-fold standard deviation of the average DMSO absorbance. The calculation of solubility range data was made by Excel tool software. Results are expressed as an estimated solubility range.

[8] = metabolic stability in human liver microsomes; assay type: in vitro ADME
Method: as §1

[9] = choline release assay using as a substrate

Row | Structure (SMILES) | IC50 (Autotaxin (ATX); [9]) [µM] | ATX inhibition, range of activity (Autotaxin (ATX)) | LMS: predicted in vivo hepatic clearance, rat [1] [%LBF] | PS (plasma stability), rat [2] | fraction unbound at 4 h, 5 µM [3] | PS (plasma stability), human [4] [%remaining] | chromatographic logD [5] | fraction unbound at 4 h, 5 µM [6] | solubility kinetic at 1 h [7] [µM] | LMS: predicted in vivo hepatic clearance, human [8] [%LBF] | IC50 (Autotaxin (ATX); choline release assay using LPC C16:0 as a substrate) [µM] | PPB: fraction bound, human [3] | Chrom logD [5] | Solubility (kinetic solubility range) ([7]; turbidimetric, PBS pH 7.4, after 1h) [µM]
1 | O=C(OCc1cc(Cl)cc(Cl)c1)N1CCN(C2CCN(C(=O)c3ccc4c(c3)B(O)OC4)C2)CC1 (stereo not drawn) [Compound 30, (3,5-dichlorophenyl)methyl 4-[1-(1-hydroxy-3H-2,1-benzoxaborole-6-carbonyl)pyrrolidin-3-yl]piperazine-1-carboxylate] | 0.18 ± 0.04 | nanomolar range | 86 | 64.5 %remaining | 0.016 | 66.5 | 4.52 | 0.012 | > 100 | 82 | – | – | – | –
2 | O=C(OCc1cc(Cl)cc(Cl)c1)N1CCN(C2CCN(C(=O)c3cccc4c3B(O)OC4)C2)CC1 (stereo not drawn) [Compound 31, (3,5-dichlorophenyl)methyl 4-[1-(1-hydroxy-3H-2,1-benzoxaborole-7-carbonyl)pyrrolidin-3-yl]piperazine-1-carboxylate] | 7.5 ± 5.6 | – | 86 | 67.9 %remaining | 0.022 | 71.6 | 4.63 | – | > 100 | 85 | – | – | – | –
3 | O=C(OCc1cc(Cl)cc(Cl)c1)N1CCN(C2CCN(C(=O)c3ccc4c(c3)B(O)OC4)CC2)CC1 [Compound 34] | – | nanomolar range | 77 | 61.6 %remaining | – | 70.6 | – | – | – | 89 | 0.92 ± 0.82 | NA ^e/99.2% | 5.49 | >100
4 | O=C(OCc1cc(Cl)cc(Cl)c1)N1CCN(C2CCN(C(=O)c3ccc4c(c3)COB4O)CC2)CC1 [Compound 35, (3,5-dichlorophenyl)methyl 4-[1-(1-hydroxy-3H-2,1-benzoxaborole-5-carbonyl)-4-piperidyl]piperazine-1-carboxylate] | 1.8 ± 1.75 | – | 86 | 63.0 %remaining | 0.017 | 59.2 | 4.58 | – | > 100 | 89 | – | – | – | –
5 | O=C(OCc1cc(Cl)cc(Cl)c1)N1CCN(C2CN(C(=O)c3ccc4c(c3)B(O)OC4)C2)CC1 [Compound 37, (3,5-dichlorophenyl)methyl 4-[1-(1-hydroxy-3H-2,1-benzoxaborole-6-carbonyl)azetidin-3-yl]piperazine-1-carboxylate] | 0.13 ± 0.12 | nanomolar range | 62 | 71.2 %remaining and 72.2 %remaining | 0.021 | 79.1 | 4.58 | 0.016 | 30 to 100 (≈ 15.1 to 50.4 µg/mL) | 85 | – | – | – | –
6 | Cc1cc(C)cc(COC(=O)N2CCN(C3CCN(C(=O)c4ccc5c(c4)B(O)OC5)C3)CC2)c1 (stereo not drawn) [Compound 43, (3,5-dimethylphenyl)methyl 4-[1-(1-hydroxy-3H-2,1-benzoxaborole-6-carbonyl)pyrrolidin-3-yl]piperazine-1-carboxylate] | 2.7 ± 2.11 | – | 80 | 59.5 %remaining | 0.022 | 79.2 | 4.13 | 0.039 | > 100 | 85 | – | – | – | –
